Measurements reported in patent US20240010678A1, “METHOD OF TREATMENT OF IRRITABLE BOWEL SYNDROME” (THE JOHNS HOPKINS UNIVERSITY, priority 2020, published 2024).
“Also recorded” adds a separate entry of the source.

Experiments:
[1] = system: mouse model of IBS; test: Visceromotor reflex (VMR) response to colorectal distention (CRD) in a mouse model of IBS; assay type: in vivo; conditions: graded colorectal distention, KSL-W given intracolonically (FIG. 1), rifaximin FIG. 2
Method: Mouse pups at postnatal day 10 will receive a […] enema infusion with 0.5% acetic acid or saline. The pup will be gently held by hand with head down. A poly-ethylene tubing (PE-10) connected to a 100 ul Hamilton syringe is insert through the rectum into the distal colon about 1.5 cm from the anus. 20 μl of 0.5% acetic acid or saline is infused slowly (about second). The pups are put back with dam and wean at 3 weeks old. The mice are allowed to grow into adulthood (8-12 weeks) when they are ready for test of hypersensitivity (increased pain to graded painful stimulus).
Visceromotor reflex (VMR) and Abdominal Withdrawal Reflex (AWR) response to colorectal distention (CRD) for assessing visceral pain sensitivity. The VMR is a reflex measured using an electromyographic (EMG) recording obtained from the external oblique muscle. […] Then, 30-45 min later, the VMR response to CRD is measured by EMG.
Procedure of electrodes implantation: Under a cocktail of Ketamine/Xylazine (80:8 mg/kg body weight) or 1-2% isoflurane. adult mice undergo surgery to implant abdominal electrodes. The depth of anesthesia will be assessed by pinching the toes for a toe pinch response (negative) every 15 minutes during the surgical procedure. […]
EMG response to CRD: EMG is recorded from two externalized electrodes implanted in the external oblique muscle by using CED 1401 plus and Spike 2 software. […]

[2] = system: oral microorganisms; conditions: U.S. Pat. Nos. 7,494,980 and 8,778,889; cited from earlier work
[3] = system: biofilms that mimic supragingival or cariogenic plaque; conditions: cited from earlier work
[4] = system: pathogenic bacteria; test: Selectivity of the antimicrobial peptide for pathogenic versus beneficial bacteria
[5] = system: microbial balance in the colon; test: Effect on microbial balance in the colon; assay type: in vivo; conditions: FIG. 1 cited
Method: Using a novel comprehensive, high-density DNA microarray (PhyloChip) a phylogenetic analysis of the microbial community of the large bowel was performed. […] Even more striking was the dramatic change in the ratio of Firmicutes relative to Bacteroidetes, where “IBS” animals were enriched more with Bacteroidetes and also contained a different composition of species within this phylum.

| Compound | pain behavior (VMR response to colorectal distention) [1] | antibacterial activity / inhibition of growth of oral microorganisms [2] | prevention of biofilm formation [3] | selectivity against pathogenic versus beneficial bacteria [4] | microbial balance in the colon [5] |
| --- | --- | --- | --- | --- | --- |
| CO[C@H]1/C=C/O[C@@]2(C)Oc3c(C)c(O)c4c(O)c(c5c(nc6cc(C)ccn65)c4c3C2=O)NC(=O)/C(C)=C\C=C\[C@H](C)[C@H](O)[C@@H](C)[C@@H](O)[C@@H](C)[C@H](OC(C)=O)[C@@H]1C [rifaximin, reference compound] | attenuates pain behavior | – | – | – | – |
| NH2-Lys-Lys-Val-Val-Phe-Lys-Val-Lys-Phe-Lys-CO NH2 (H-KKVVFKVKFK-NH2) [KSL, antimicrobial decapeptide] | – | possess a broad range of antibacterial activity; also recorded: inhibiting the growth of various oral microorganisms | effective in preventing the formation of biofilms that mimic supragingival or cariogenic plaque | – | – |
| NH2-Lys-Lys-Val-Val-Phe-Trp-Val-Lys-Phe-Lys-CO NH2 (H-KKVVFWVKFK-NH2) [KSL-W, L-tryptophan analog of KSL; L-lysine at position six replaced with L-tryptophan] | attenuates pain behavior | – | – | works against pathogenic bacteria but spares beneficial ones; also recorded: selective against pathogenic bacteria but not beneficial bacteria | resets the microbial balance in the colon |
